{"source": "patent US10881677B2", "about": "“Composition for modulating IRAK1” (Agency for Science, Technology and Research, priority 2015, dated 2021)", "key": {"MDA231-PR cells": {"tested_on": "MDA231-PR cells", "assay": "Cell viability IC50 curves, sensitivity of paclitaxel-resistant cells to agents", "assay_type": "cell-based", "conditions": "for sensitivity of paclitaxel-resistant cells to agent: paclitaxel-treated/resistant cells over-expressing p-IRAK1; for shift of the IC50 curve: MDA231-PR versus parental MDA-MB-231", "from_the_text": "(§1) FIG. 17. (a). IC50 curves showing cell viability after treatment with paclitaxel (PTX), vincristine (VCR), gemcitabine, doxorubicin (ADR), cisplatin, 5-fluorouracil (5-FU) and pacritinib in parental and pacitaxel-treated MDA-MB-231 (MDA231-PR) cells. (b). Graphical representation of relative sensitivities. (c).\n(§2) For cell proliferation assay, the optimal cell seeding was first determined empirically for all cell lines by examining the growth of a wide range of seeding densities in a 96-well format to identify conditions that permitted proliferation for 7 days. Cells were then plated at the optimal seeding density 24 h before siRNA or drug treatment in triplicate. Plates were incubated for 7 days at 37° C. in 5% CO2. Cells were then lysed with CellTiter-Glo (CTG) (Promega, Madison, Wis.) and chemiluminescent signal was detected with a microplate reader on Day 0, 1, 3, 5 and 7. In addition, an untreated plate of cells was harvested at the time of drug or siRNA addition (T0) to quantify the starting number of cells. CTG values obtained after the 7 day treatment were expressed as percentages of the T0 value and plotted against time of treatment."}, "[1]": {"tested_on": "parental MDA-MB-231 cells", "assay": "Cell viability IC50 curves, sensitivity of parental cells to agents", "assay_type": "cell-based", "conditions": "parental MDA231", "from_the_text": "as §1, §2"}, "[2]": {"tested_on": "SUM159-PR and MDA231-PR cells", "assay": "Apoptosis by FACS analysis of Sub-G1 cells", "assay_type": "cell-based", "conditions": "for sensitization of Paclitaxel for apoptosis: Paclitaxel-resistant cells (SUM159-PR, MDA231-PR), inhibitor together with Paclitaxel", "experimental": "Cell cycle analysis was done by DNA content quantification to quantify the sub-G1 population which is reflective of the extent of cell death. Briefly, the cells were fixed with 70% ethanol and stained with propidium iodide (50 μg/ml) staining. The stained cells were analyzed by FACScalibur (BD Bioscience) and quantified by using CellQuest software (BD bioscience)."}, "IRAK1": {"target": "IRAK1 (Homo sapiens, UniProt P51617)", "sequence (P51617 whole entry, species assumed)": "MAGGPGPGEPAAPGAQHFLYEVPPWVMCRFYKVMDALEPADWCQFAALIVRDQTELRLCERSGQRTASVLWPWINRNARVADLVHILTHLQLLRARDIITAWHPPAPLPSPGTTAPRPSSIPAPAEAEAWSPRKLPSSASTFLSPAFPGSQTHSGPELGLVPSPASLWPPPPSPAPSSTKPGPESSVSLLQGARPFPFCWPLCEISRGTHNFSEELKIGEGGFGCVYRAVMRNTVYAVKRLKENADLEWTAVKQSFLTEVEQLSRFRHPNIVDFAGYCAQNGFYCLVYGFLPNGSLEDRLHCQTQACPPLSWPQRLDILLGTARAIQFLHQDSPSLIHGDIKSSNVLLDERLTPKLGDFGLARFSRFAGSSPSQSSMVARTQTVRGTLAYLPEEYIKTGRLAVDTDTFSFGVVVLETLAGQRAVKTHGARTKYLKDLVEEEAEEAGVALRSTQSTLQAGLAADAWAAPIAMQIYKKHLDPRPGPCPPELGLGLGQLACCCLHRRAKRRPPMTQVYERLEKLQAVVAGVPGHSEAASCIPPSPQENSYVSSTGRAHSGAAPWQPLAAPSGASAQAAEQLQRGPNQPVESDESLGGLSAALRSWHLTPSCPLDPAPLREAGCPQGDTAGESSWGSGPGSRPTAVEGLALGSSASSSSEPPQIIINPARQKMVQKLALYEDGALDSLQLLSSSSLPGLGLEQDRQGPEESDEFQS", "conditions": "cited from earlier work; for ability to inhibit IRAK1: recently reported (ref 38), in vitro and in vivo"}, "[3]": {"tested_on": "BT549, MB436, MB468, MDA231 and MDA231-LM2 cells", "assay": "Mammosphere formation assay", "assay_type": "cell-based", "conditions": "Ginsenosides CK and Rb1", "experimental": "Active growing cells were treated with 0.05% trypsin for 10 minutes then passed through […] cell strainer to achieve single cell suspension. Cells were plated (MDA231: 1×10^4; MB436: 3×10^4; MB468: 4×10^4 cells/well, BT549: 3×10^4, MDA231-LM2: 3×10^4) seeded in 6-well ultra-low attachment plates (Corning, Corning, N.Y., cat: CLS3471) in Mammocult medium (Stem cell Technologies, Vancouver, BC, Canada), supplemented with fresh hydrocortisone (0.51 μg/ml) and heparin (1:500). Tumorspheres were cultured for 7 days prior to being counted and photographed. Imaging and quantification were done using GelCount™ apparatus and associated software (Oxford Optronix, Abingdon, UK). For serial passages of tumorsphere formation assay, the spheres were collected by gentle centrifugation, dissociated to single cells for passaging tumorspheres every 14 days and counted. Tumorspheres were photographed and quantified 7-12 days later using a GelCount Colony Counter after staining with INT."}, "[4]": {"tested_on": "MDA231 and SUM159 parental and Paclitaxel-resistant sublines (PR)", "assay": "Cell viability of parental and Paclitaxel-resistant sublines, combination treatment", "assay_type": "cell-based", "conditions": "MDA231-PR cells, in combination with PTX", "experimental": "as §2"}, "p-IRAK1 (T209)": {"target": "T1, p-IRAK1 (T209) (Homo sapiens, UniProt P51617)", "T1 construct": "The whole cell lysate were extracted with the NE-PER kit (Pierce Biotechnology) and subjected to immunoprecipitation using 2 μg total-IRAK1 antibody; endogenous in cells; host or cells: TNBC cell lines (BT549, MB436, MB468, MDA231, MDA231-LM2, SUM159 and paclitaxel-resistant sublines)", "T1 sequence (P51617 whole entry)": "as the sequence (P51617 whole entry, species assumed) above", "assay": "Western blot of p-IRAK1 in immunoprecipitated IRAK1", "assay_type": "cell-based", "conditions": "for IRAK1 signaling activated by chemotherapeutic agents: discussion statement; for induction of p-IRAK1 by chemotherapeutic agent: MDA231 (also SUM159) cells, PTX 5 nM, ADR 2 μM, Cisplatin 5 μM, up to 48 hours", "experimental": "(§3) Western Blotting was performed as described previously (8). IRAK1 (Cat no: #4359), IRAK4 (Cat no.: 4363), cleaved PARP (Cat no.: #9541), p38 MAPK (Cat no.: #9212), phospho-p38 MAPK (T180/Y182) (Cat no.: #9211), phospho-NF-KappaB p65 (S536) (Cat no. #3031) were purchased from Cell Signaling (Danvers, Mass.). Phospho-IRAK1 (T209) antibody was purchased from Assay Biotech (Sunnyvale, Calif., Cat no.: A1074) and phospho-IRAK1 (S376) antibody from Genetex (Irvine, Calif., Cat no.: GTX50994). MCL-1 antibody was purchased from Santa Cruz Biotechnology (Santa Cruz, Calif., Cat no.: sc-819). Actin was purchased from Sigma-Aldrich (St Louis, Mo., Cat no.: A5441). Detection of bands was performed with the ChemiDoc™ MP Imaging Systems (Bio-Rad, Hercules, Calif.) and bands were subjected to further densitometric analysis with Image Lab software (Version 4.1, Bio-rad, Hercules, Calif.).\nCo-IP was performed as described previously (9). The whole cell lysate were extracted with the NE-PER kit (Pierce Biotechnology) and subjected to immunoprecipitation using 2 μg total-IRAK1 antibody (Santa Cruz Biotech, Santa Cruz, Calif., Cat no.: sc-7883). The precipitated protein complex was captured using protein A-Agarose beads (Roche) and extensively washed with the washing buffer (50 mM Tris-HCl, 150 mM NaCl, 0.1% triton). The precipitated proteins were dissolved in SDS sample buffer along with 3 mM DTT, and subjected to immunoblotting analysis. Phospho-IRAK1 (T209) (Assay Biotechnology, Sunnyvale, Calif., Cat no.: A1074) was used for detection."}, "[5]": {"tested_on": "p38-MCL-1 signaling in SUM159-PR cells", "assay": "Western blot of p-p38, MCL-1 and cleaved PARP", "assay_type": "cell-based", "conditions": "inhibitor with Paclitaxel", "experimental": "as §3"}}, "note": "Entries after “also recorded” stand apart in the source; their conditions may differ."}
{"smiles": "O=c1[nH]cc(F)c(=O)[nH]1", "note": "[5-fluorouracil]", "values": [{"measurement": "sensitivity of paclitaxel-resistant cells to agent", "setting": "MDA231-PR cells", "result": "poor"}, {"measurement": "response of parental cells to agent", "setting": "[1]", "result": "poor"}]}
{"smiles": "Cc1ccc(S(=O)(=O)/C=C/C#N)cc1", "note": "[Bay 117082, BAY-11-7082]", "values": [{"measurement": "sensitization of Paclitaxel for apoptosis", "setting": "[2]", "result": "failed to sensitize"}]}
{"smiles": "CC(C)=CCC[C@](C)(O[C@@H]1O[C@H](CO)[C@@H](O)[C@H](O)[C@H]1O)[C@H]1CC[C@]2(C)[C@@H]1[C@H](O)C[C@@H]1[C@@]3(C)CC[C@H](O)C(C)(C)[C@@H]3CC[C@]12C", "note": "[CK, Compound K]", "values": [{"measurement": "ability to inhibit IRAK1", "setting": "IRAK1", "result": "ability to inhibit IRAK1"}, {"measurement": "MDA231-LM2 mammosphere growth", "setting": "[3]", "result": "abolish; also recorded: inhibit TNBC metastatic growth"}, {"measurement": "effect on Paclitaxel resistance (cell viability and apoptosis)", "setting": "[4]", "result": "combat Paclitaxel resistance; also recorded: combat chemoresistance"}, {"measurement": "p-IRAK1 in MDA231-LM2 cells", "setting": "p-IRAK1 (T209); CK 25 μM", "result": "inhibit p-IRAK1"}]}
{"smiles": "NS(=O)(=O)c1nn2cc(-c3ccccc3)nc2s1", "note": "[JNK inhibitor, AEG 3482]", "values": [{"measurement": "sensitization of Paclitaxel for apoptosis", "setting": "[2]", "result": "not evident"}]}
{"smiles": "O=C(Nc1cc(Cl)cc2c1[nH]c1cnccc12)c1cccnc1", "note": "[PS1145]", "values": [{"measurement": "sensitization of Paclitaxel for apoptosis", "setting": "[2]", "result": "failed to sensitize"}]}
{"smiles": "CC(C)=CCC[C@](C)(O[C@@H]1O[C@H](CO[C@@H]2O[C@H](CO)[C@@H](O)[C@H](O)[C@H]2O)[C@@H](O)[C@H](O)[C@H]1O)[C@H]1CC[C@]2(C)[C@@H]1[C@H](O)C[C@@H]1[C@@]3(C)CC[C@H](O[C@@H]4O[C@H](CO)[C@@H](O)[C@H](O)[C@H]4O[C@@H]4O[C@H](CO)[C@@H](O)[C@H](O)[C@H]4O)C(C)(C)[C@@H]3CC[C@]12C", "note": "[Rb1, Ginsenoside Rb1]", "values": [{"measurement": "ability to inhibit IRAK1", "setting": "IRAK1", "result": "ability to inhibit IRAK1"}]}
{"smiles": "CC[C@]1(O)C[C@H]2CN(CCc3c([nH]c4ccccc34)[C@@](C(=O)OC)(c3cc4c(cc3OC)N(C=O)[C@H]3[C@@](O)(C(=O)OC)[C@H](OC(C)=O)[C@]5(CC)C=CCN6CC[C@]43[C@@H]65)C2)C1", "note": "[Vincristine]", "values": [{"measurement": "shift of the IC50 curve", "setting": "MDA231-PR cells", "result": "marked right shift"}, {"measurement": "sensitivity of paclitaxel-resistant cells to agent", "setting": "MDA231-PR cells", "result": "resistant"}, {"measurement": "IRAK1 signaling activated by chemotherapeutic agents", "setting": "p-IRAK1 (T209)", "result": "activated"}]}
{"smiles": "N.N.[Cl][Pt][Cl]", "note": "[cisplatin]", "values": [{"measurement": "sensitivity of paclitaxel-resistant cells to agent", "setting": "MDA231-PR cells", "result": "remained sensitive; also recorded: remained susceptible"}, {"measurement": "induction of p-IRAK1 by chemotherapeutic agent", "setting": "p-IRAK1 (T209)", "result": "not seen"}]}
{"smiles": "COc1cccc2c1C(=O)c1c(O)c3c(c(O)c1C2=O)C[C@@](O)(C(=O)CO)C[C@@H]3O[C@H]1C[C@H](N)[C@H](O)[C@H](C)O1", "note": "[doxorubicin, Doxorubicin]", "values": [{"measurement": "shift of the IC50 curve", "setting": "MDA231-PR cells", "result": "marked right shift"}, {"measurement": "induction of p-IRAK1 by chemotherapeutic agent", "setting": "p-IRAK1 (T209)", "result": "not seen"}, {"measurement": "IRAK1 signaling activated by chemotherapeutic agents", "setting": "p-IRAK1 (T209)", "result": "activated"}]}
{"smiles": "Nc1ccn([C@@H]2O[C@H](CO)[C@@H](O)C2(F)F)c(=O)n1", "note": "[gemcitabine]", "values": [{"measurement": "sensitivity of paclitaxel-resistant cells to agent", "setting": "MDA231-PR cells", "result": "remained sensitive; also recorded: remained susceptible"}]}
{"smiles": "C[C@@H]1CN(Cc2ccc(F)cc2)[C@@H](C)CN1C(=O)c1cc2c(C(=O)C(=O)N(C)C)cn(C)c2cc1Cl", "note": "[p38 inhibitor, SCIO 469]", "values": [{"measurement": "PARP cleavage", "setting": "[5]", "result": "increased PARP cleavage"}, {"measurement": "p-p38 and MCL-1 expression", "setting": "[5]", "result": "decrease"}, {"measurement": "sensitization of Paclitaxel for apoptosis", "setting": "[2]", "result": "able to phenocopy IRAK-inh to sensitize Paclitaxel-induced apoptosis"}]}
{"smiles": "C1=C/COCc2cc(ccc2OCCN2CCCC2)Nc2nccc(n2)-c2cccc(c2)COC/1", "note": "[pacritinib]", "values": [{"measurement": "IRAK1-inhibitory activity", "setting": "IRAK1; through communication with CTI BioPharma", "result": "IRAK1-inhibitory activity"}, {"measurement": "sensitivity of paclitaxel-resistant cells to agent", "setting": "MDA231-PR cells", "result": "sensitive; also recorded: remained susceptible"}, {"measurement": "effect of treatment on paclitaxel-resistant MDA-MB-231 cells", "setting": "[2]; compared with IRAK-inh", "result": "effects similar to those seen with IRAK-inh"}]}
